Source: ChEMBL document CHEMBL1201862, “PubChem BioAssay data set” (2004)
Activity calls are given as the source filed them.

Legend:
Fatty acid synthase [1] = biological target: T1, Fatty acid synthase (Homo sapiens, UniProt P49327); assay: inhibition of human FAS-TE enzyme activity – biochemical, kinetic fluorescence intensity, dose response (AID 624326); format: functional;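 also: rate of fluorescence rise from hydrolysis of a fluorogenic O-methyl fluorescein ester substrate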
[2] = biological target: T2, Short transient receptor potential channel 4 (Mus musculus, UniProt Q9QUQ5); assay: block of DAMGO-driven TRPC4 calcium entry – cell-based, HEK293 TRPC4/mu-opioid, Fluo-4 calcium, dose response (AID 434942); format: functional;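 also: potency of inhibitors blocking the TRPC4 calcium response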
T2 sequence (Q9QUQ5 whole entry): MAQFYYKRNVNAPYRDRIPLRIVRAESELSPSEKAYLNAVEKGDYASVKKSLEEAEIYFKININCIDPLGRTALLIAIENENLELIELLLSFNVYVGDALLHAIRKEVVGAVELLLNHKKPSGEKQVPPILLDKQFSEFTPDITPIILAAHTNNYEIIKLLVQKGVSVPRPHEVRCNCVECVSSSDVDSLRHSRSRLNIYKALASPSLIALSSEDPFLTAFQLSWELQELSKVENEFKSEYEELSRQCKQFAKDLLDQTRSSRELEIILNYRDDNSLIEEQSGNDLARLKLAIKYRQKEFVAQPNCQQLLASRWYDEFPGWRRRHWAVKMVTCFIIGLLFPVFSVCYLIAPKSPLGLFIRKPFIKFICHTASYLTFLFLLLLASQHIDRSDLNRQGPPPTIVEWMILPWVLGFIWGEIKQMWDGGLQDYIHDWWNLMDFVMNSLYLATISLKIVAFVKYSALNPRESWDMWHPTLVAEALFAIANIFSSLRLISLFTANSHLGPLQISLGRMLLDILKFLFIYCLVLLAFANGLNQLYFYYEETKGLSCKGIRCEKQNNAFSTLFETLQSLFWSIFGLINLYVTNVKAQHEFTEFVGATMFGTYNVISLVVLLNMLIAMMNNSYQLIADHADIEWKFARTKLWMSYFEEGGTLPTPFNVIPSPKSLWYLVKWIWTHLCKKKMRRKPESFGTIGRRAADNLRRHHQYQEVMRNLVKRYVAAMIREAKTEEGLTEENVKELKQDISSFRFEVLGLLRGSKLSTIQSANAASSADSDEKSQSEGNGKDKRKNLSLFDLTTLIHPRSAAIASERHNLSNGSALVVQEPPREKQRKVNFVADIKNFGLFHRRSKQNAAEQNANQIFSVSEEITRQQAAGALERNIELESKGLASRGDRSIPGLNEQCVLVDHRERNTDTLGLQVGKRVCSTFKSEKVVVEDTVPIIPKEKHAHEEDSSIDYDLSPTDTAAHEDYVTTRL

Fatty acid synthase [3] = biological target: T1, Fatty acid synthase; assay: inhibition of human FAS-TE enzyme activity – biochemical, endpoint fluorescence intensity, uHTS hits, dose response (AID 624327); format: functional;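 also: fluorescence from hydrolysis of an O-methyl fluorescein acyl ester substrate by the enzyme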
[4] = biological target: T3, Acyl-homoserine lactone acylase PvdQ (Pseudomonas aeruginosa (strain LESB58), UniProt Q9I194); assay: PvdQ acylase enzyme activity blockers – biochemical, fluorescence, plate reader and imaging, cherry-picks, dose response (AID 493231)
T3 sequence (Q9I194 whole entry): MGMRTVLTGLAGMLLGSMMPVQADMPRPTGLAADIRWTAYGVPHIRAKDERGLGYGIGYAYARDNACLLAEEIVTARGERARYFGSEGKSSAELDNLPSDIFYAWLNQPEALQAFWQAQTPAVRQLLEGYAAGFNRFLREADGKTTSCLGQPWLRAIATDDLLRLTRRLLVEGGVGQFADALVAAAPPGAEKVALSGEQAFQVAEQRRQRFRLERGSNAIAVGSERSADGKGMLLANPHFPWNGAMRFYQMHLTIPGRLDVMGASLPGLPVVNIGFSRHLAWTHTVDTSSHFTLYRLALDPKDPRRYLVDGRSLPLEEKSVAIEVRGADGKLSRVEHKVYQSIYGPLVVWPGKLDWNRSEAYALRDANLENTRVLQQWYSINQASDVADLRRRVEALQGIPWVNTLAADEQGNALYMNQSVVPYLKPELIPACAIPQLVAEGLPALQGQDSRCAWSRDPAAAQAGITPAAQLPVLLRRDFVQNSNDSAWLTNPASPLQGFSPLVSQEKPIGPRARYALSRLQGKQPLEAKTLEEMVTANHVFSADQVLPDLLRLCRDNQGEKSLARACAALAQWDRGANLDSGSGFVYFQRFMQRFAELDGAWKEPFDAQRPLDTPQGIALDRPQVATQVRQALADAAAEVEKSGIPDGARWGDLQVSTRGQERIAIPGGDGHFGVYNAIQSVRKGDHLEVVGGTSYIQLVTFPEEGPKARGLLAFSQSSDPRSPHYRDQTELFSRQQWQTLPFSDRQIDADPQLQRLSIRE

HEK293 [5] = assay: NOD2 signaling inhibitors in MDP-stimulated cells, cell-based, uHTS, luminescence (AID 2001); format: functional; conditions: Homo sapiens
HEK293 [6] = assay: cells; format: functional, cell-based; conditions: Homo sapiens
HEK293 [7] = assay: cells; format: functional, cell-based; conditions: Homo sapiens; remark: listed apart in the source
HEK293 [8] = assay: inhibition of NOD1-driven NF-kB reporter – cell-based, luminescence, uHTS, primary screen (AID 1578); format: functional; conditions: Homo sapiens
HEK293 [9] = assay: cells; format: functional, cell-based; conditions: Homo sapiens; remark: listed apart in the source
[10] = biological target: Nucleotide-binding oligomerization domain-containing protein 2 (Homo sapiens, UniProt Q9HC29); assay: inhibition of NOD2-driven NF-kB reporter – cell-based, luminescence, uHTS, HEK293 (AID 1566); format: functional
[11] = biological target: Induced myeloid leukemia cell differentiation protein Mcl-1 (Homo sapiens, UniProt Q07820); format: functional
[12] = fluconazole-exposed Candida albicans growth modulators – fluorescence, retest, confirmation (AID 2467); format: functional, cell-based
[13] = biological target: T4, Voltage-gated N-type calcium channel alpha-1B subunit/Amyloid beta A4 precursor protein-binding family A member 1 (Homo sapiens, UniProt Q00975+Q02410); assay: disruptors of Mint-PDZ/N-type channel peptide interaction – biochemical, HTRF, set 2, SAR follow-up (AID 434980); format: functional
[14] = NIH-3T3 fibroblast cytotoxicity, dose response, cytotoxicity control, cell-based, fluorescence, Alamar Blue, secondary assay (AID 2327); format: functional;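 also: NIH-3T3 mouse fibroblasts cultured with fluconazole at 8 µg/mL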
[15] = biological target: T4, Voltage-gated N-type calcium channel alpha-1B subunit/Amyloid beta A4 precursor protein-binding family A member 1; assay: disruptors of Mint-PDZ/N-type channel peptide interaction – biochemical, HTRF, SAR follow-up (AID 2489); format: functional
[16] = biological target: T4, Voltage-gated N-type calcium channel alpha-1B subunit/Amyloid beta A4 precursor protein-binding family A member 1; format: protein assay
[17] = biological target: T4, Voltage-gated N-type calcium channel alpha-1B subunit/Amyloid beta A4 precursor protein-binding family A member 1; format: protein assay; remark: listed apart in the source
Protein RecA = biological target: T5, Protein RecA (Mycobacterium tuberculosis, UniProt P9WHJ3); assay: Fluorescence Cell-Free Homogeneous Dose Retest to Identify Inhibitors of RecA-Intein Splicing Activity. [Related pubchem assays (depositor defined):AID2097, AID2223, AID489010, AID492950]; format: functional
T5 sequence (P9WHJ3 whole entry): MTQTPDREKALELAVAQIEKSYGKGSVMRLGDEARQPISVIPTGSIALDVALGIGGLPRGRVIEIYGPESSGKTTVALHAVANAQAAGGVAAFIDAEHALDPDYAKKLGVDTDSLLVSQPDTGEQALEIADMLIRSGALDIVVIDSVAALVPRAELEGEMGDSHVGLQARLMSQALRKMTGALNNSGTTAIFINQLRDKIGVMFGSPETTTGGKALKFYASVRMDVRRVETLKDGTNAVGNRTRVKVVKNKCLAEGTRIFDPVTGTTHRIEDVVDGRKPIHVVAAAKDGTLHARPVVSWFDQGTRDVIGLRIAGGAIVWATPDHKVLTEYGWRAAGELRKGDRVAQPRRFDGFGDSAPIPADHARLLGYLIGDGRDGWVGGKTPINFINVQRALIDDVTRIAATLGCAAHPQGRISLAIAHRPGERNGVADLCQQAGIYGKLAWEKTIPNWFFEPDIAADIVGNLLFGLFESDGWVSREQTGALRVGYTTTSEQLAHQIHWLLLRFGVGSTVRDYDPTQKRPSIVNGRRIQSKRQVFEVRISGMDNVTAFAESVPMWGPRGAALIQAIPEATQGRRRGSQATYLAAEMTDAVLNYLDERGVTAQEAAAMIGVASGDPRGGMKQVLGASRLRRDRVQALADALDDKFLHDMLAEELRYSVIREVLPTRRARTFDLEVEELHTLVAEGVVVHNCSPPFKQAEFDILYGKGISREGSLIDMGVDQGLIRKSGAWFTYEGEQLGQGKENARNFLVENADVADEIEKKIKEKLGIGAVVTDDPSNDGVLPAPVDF

[18] = biological target: T6, Replicative DNA helicase DnaB (Mycobacterium tuberculosis, UniProt P9WMR3); assay: DnaB intein splicing inhibitors, dose response, biochemical, cell-free fluorescence (AID 449749); format: functional
T6 sequence (P9WMR3 whole entry): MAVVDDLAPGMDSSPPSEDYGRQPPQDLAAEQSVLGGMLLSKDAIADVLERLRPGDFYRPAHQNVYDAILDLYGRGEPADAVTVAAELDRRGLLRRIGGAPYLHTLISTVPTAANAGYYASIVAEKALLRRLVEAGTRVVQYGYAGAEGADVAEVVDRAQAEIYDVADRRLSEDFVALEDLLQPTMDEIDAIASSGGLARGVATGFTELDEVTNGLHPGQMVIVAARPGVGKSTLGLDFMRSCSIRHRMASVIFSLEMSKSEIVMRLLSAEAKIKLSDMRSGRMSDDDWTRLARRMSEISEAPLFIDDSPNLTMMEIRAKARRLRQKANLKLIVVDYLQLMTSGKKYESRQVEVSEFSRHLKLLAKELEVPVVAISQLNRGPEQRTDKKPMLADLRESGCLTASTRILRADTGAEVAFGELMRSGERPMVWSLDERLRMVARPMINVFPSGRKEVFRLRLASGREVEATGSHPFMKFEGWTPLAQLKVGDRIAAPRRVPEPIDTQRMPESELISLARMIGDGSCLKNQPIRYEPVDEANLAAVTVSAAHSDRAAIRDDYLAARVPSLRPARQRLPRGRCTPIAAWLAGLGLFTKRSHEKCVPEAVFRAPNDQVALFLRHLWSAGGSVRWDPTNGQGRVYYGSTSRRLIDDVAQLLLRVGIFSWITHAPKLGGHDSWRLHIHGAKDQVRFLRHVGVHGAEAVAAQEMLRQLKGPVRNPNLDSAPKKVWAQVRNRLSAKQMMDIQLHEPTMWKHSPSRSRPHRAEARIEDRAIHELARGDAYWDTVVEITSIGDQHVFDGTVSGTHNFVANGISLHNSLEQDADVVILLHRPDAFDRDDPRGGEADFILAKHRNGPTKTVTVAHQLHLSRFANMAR

[19] = biological target: DNA dC->dU-editing enzyme APOBEC-3G (Homo sapiens, UniProt Q9HC16); assay: Dose Response confirmation of small molecule APOBEC3G DNA Deaminase Inhibitors via a fluorescence-based single-stranded DNA deaminase assay. [Related pubchem assays (depositor defined):AID493012, AID493028]; format: functional
[20] = biological target: Eukaryotic translation initiation factor 4E (Mus musculus, UniProt P63073); assay: blockers of eIF4G binding by eIF4E – biochemical, TR-FRET, dose response (AID 855); format: functional;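 also: potency for disrupting eIF4E binding to eIF4GI seen as loss of FRET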
[21] = biological target: Melanin-concentrating hormone receptor 1 (Homo sapiens, UniProt Q99705); assay: Late-stage fluorescence-based counterscreen for antagonists of the G-protein coupled receptor 7 (GPR7): cell-based dose response assay to identify antagonists of the melanin-concentrating hormone receptor 1 (MCHR1). [Related pubchem assays (depositor defined):AID1861, AID1880, AID1952, AID2148, AID2251, AID2257, AID485339]; format: functional;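 also: stimulated with 30 nM MCH peptide agonist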
Chain of Melanin-concentrating hormone receptor 1 (Q99705 whole entry): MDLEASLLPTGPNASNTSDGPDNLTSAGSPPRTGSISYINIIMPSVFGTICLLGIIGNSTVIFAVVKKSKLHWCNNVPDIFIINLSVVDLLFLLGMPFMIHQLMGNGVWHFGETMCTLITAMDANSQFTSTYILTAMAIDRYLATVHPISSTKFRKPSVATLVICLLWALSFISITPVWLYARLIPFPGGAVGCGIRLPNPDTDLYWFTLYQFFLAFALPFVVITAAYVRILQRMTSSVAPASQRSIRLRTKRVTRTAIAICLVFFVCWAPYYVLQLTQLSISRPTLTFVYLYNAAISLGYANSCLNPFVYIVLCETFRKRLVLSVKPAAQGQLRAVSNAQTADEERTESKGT

T4 sequence (Q00975 whole entry): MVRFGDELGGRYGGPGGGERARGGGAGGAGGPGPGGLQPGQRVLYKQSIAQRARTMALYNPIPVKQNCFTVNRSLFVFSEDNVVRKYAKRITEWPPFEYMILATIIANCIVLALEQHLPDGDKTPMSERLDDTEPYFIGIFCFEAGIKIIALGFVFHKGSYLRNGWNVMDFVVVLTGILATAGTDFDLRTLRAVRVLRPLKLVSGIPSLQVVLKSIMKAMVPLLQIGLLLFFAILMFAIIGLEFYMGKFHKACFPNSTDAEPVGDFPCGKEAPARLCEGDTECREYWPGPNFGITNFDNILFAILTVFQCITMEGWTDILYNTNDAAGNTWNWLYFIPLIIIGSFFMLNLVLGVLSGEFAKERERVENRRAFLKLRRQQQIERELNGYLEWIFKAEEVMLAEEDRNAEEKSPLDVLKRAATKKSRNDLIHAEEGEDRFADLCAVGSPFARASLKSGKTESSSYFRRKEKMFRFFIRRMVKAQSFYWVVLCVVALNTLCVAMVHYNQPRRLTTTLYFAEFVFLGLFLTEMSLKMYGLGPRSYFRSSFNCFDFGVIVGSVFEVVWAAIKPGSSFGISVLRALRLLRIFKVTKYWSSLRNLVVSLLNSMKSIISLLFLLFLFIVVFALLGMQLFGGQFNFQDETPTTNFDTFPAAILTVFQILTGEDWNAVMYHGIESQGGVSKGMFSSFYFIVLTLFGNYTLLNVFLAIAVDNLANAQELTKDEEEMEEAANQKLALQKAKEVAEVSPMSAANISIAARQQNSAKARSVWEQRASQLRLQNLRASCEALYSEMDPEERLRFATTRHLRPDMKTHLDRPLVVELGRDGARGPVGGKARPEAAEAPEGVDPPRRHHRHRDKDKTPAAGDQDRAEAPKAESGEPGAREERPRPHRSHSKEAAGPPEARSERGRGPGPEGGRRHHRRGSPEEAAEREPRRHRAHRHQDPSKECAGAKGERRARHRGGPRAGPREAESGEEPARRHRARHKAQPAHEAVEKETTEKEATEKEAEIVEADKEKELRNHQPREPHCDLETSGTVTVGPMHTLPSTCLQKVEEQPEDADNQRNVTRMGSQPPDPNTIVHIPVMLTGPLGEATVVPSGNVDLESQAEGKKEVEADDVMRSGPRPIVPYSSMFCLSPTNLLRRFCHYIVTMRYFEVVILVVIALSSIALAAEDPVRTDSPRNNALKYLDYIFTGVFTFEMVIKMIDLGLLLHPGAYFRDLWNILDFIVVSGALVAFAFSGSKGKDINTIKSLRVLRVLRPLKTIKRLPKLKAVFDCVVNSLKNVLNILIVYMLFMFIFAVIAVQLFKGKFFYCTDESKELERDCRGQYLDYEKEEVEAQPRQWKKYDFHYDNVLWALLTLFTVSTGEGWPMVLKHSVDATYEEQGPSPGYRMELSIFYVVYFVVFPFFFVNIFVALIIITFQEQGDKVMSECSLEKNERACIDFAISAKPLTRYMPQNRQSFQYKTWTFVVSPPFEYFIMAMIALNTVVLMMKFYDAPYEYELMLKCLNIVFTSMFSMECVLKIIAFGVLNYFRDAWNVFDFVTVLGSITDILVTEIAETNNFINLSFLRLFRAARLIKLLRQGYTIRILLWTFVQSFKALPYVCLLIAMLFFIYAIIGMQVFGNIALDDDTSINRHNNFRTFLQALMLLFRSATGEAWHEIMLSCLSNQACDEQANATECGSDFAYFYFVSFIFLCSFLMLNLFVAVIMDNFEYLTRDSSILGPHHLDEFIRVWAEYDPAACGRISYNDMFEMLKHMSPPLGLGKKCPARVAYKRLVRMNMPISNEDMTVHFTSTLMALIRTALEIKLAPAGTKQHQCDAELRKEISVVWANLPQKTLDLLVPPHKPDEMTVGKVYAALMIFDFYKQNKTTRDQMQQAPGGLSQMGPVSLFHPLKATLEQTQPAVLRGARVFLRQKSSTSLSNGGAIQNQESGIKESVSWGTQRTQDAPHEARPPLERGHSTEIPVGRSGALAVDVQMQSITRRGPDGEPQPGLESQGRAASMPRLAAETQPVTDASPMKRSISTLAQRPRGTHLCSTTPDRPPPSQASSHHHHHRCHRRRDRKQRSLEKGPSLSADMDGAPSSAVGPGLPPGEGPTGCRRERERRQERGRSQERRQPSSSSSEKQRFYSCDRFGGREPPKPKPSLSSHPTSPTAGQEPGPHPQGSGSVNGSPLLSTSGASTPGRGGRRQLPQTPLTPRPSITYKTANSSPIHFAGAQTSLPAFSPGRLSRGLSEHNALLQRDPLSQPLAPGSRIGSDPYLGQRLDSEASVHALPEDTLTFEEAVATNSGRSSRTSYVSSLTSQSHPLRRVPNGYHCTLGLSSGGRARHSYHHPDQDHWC
T4 sequence (Q02410 whole entry): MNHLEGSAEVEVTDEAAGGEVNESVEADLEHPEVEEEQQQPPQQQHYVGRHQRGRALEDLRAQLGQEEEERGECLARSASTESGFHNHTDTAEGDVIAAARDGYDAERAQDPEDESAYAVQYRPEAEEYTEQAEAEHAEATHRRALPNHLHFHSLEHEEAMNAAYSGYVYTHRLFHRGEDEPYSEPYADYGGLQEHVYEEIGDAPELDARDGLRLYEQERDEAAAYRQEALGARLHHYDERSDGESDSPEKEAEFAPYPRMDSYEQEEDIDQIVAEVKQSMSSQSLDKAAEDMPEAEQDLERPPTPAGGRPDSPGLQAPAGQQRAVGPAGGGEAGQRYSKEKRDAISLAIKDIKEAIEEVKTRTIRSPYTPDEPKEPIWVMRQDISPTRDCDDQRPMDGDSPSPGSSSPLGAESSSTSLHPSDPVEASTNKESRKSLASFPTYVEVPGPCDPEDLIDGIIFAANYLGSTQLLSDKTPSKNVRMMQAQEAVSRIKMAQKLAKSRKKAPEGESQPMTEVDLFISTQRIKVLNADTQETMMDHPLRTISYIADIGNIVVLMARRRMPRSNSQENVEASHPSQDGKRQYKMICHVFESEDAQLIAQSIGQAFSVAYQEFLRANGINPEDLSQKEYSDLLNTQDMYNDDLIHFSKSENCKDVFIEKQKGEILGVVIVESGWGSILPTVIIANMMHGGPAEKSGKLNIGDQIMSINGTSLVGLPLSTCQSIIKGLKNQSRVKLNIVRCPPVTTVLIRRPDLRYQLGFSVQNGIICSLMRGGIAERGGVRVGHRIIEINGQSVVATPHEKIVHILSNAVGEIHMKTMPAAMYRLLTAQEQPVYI
Chain of Induced myeloid leukemia cell differentiation protein Mcl-1 (Q07820 whole entry): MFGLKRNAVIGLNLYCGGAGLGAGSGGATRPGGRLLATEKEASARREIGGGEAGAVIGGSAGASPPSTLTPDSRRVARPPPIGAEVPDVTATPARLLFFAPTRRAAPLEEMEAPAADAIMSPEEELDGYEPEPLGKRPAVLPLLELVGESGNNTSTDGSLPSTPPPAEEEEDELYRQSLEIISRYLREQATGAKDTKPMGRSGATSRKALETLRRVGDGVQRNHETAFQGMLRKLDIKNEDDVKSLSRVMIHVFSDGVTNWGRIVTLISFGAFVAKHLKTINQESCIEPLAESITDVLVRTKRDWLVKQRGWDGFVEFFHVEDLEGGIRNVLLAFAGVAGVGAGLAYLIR
Chain of Eukaryotic translation initiation factor 4E (P63073 whole entry): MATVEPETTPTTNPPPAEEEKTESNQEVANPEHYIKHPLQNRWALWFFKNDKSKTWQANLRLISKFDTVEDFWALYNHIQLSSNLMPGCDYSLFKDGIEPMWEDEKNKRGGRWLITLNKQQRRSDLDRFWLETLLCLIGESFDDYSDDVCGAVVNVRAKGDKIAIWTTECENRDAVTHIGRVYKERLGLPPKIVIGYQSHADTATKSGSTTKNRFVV
Chain of DNA dC->dU-editing enzyme APOBEC-3G (Q9HC16 whole entry): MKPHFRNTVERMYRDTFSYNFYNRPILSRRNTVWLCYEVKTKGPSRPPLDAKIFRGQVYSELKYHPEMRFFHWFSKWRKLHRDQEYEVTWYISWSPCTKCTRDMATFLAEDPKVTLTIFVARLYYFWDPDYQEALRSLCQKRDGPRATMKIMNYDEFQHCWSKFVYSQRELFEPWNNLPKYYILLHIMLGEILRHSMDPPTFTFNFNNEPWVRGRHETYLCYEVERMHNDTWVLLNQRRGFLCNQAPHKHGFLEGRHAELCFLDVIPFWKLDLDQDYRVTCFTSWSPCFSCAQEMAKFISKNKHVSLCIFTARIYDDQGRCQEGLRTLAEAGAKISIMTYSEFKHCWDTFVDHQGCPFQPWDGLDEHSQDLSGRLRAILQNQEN

O=c1c2ccccc2nc(SCc2ccc([N+](=O)[O-])cc2)n1CCCO
IC50 (Fatty acid synthase [1]): 5.59 µM (active) | EC50 [2]: 0.376 µM (active) | IC50 (Fatty acid synthase [3]): 10.2 µM (active)

COc1ccc(C(Nc2ccccn2)c2c(NC(=O)c3ccco3)sc(C)c2C)cc1OC (centres undefined)
EC50 [2]: 1.19 µM (active)

O=C(NC1CCCCC1)c1cc(Cl)ccc1[N+](=O)[O-]
AC50 [4]: 69.3 µM (active)

CC1CCc2nc(NC(=O)CSc3nc4ccccc4o3)sc2C1 (centres undefined)
IC50 (HEK293 [5]): 5.28 µM (active) | IC50 (HEK293 [6]): 3.36 µM (active) | IC50 (HEK293 [7]): 15.4 µM (active) | EC50 (HEK293 [8]): 5.78 µM (active) | IC50 (HEK293 [9]): > 20 µM (inactive) | EC50 [10]: > 20 µM (inactive)

CCCc1ccc(/C=C2\C(=O)c3ccccc3C(O)=C2C(=O)OCC)cc1
IC50 [11]: 2.32 µM (not active) | EC50 [12]: > 38 µM (not active) | IC50 [13]: 5.7 µM (active) | EC50 [14]: 56.4 µM (inconclusive) | IC50 [15]: 7.19 µM (active) | IC50 [16]: 5.12 µM (active) | IC50 [17]: 9.62 µM (active) | EC50 (Protein RecA): 8.95 µM (active) | AC50 [18]: 5.54 µM (active)

O=S(=O)(Cc1ccccc1)N=Nc1c(O)[nH]c2ccc(Br)cc12
IC50 [19]: 44.3 µM (active)

Cc1cc(NC(=O)c2ccc([N+](=O)[O-])cc2Cl)no1
AC50 [4]: > 100 µM (inactive)

O=C(Nc1cccnc1)c1cc2c(ccc3ccccc32)o1
IC50 [20]: > 64 µM (inactive)

Nc1cc(=O)nc(SCC(=O)N2CCN(c3ccccc3)CC2)n1-c1ccc(F)cc1
EC50 [2]: 6.68 µM (active)

COc1ccc(Oc2c(Cl)cnn(-c3cccc(OC)c3)c2=O)cc1
IC50 [21]: 3.4 µM (active)

O=CN(c1ccccc1)c1ccc2ccccc2c1
AC50 [4]: 2.68 µM (active)

COc1ccc(Oc2c(C#N)cnn(-c3ccc(C(C)C)cc3)c2=O)cc1
IC50 [21]: 7.5 µM (active)

O=C(c1cc(-c2ccco2)nc2ccccc12)N1CCCC(c2ccccc2)C1 (centres undefined)
IC50 [13]: > 56.8 µM (inactive) | IC50 [15]: > 56.8 µM (inactive)
